Patent US20220151274A1, “PREPARATIONS WITH C-METHYL FLAVONOIDS” (BRAIN AG, priority 2018, published 2022)

Assay: Tasting of high-purity Pinoquercetin + potassium chloride (KCl)
Assay type: in vivo
Settings: for bitterness of KCl is reduced by the product, share of responses: 14 responses
Description: The sensory evaluation of the samples was performed twice by a team of seven experienced assessors.

[1] = 10 μM (3.2 ppm) with 1.5% potassium chloride in spring water
[2] = 25 μM (8 ppm) with 1.5% potassium chloride in spring water
[3] = 50 μM (16 ppm) with 1.5% potassium chloride in spring water

**Q.** Which “bitterness of KCl is reduced by the product, share of responses” value (shortened to “bitterness of KCl is reduced”) (1 μM (0.3 ppm) with 1.5% potassium chloride in spring water) does the source give for `Cc1c(O)cc2oc(-c3ccc(O)c(O)c3)c(O)c(=O)c2c1O` [Pinoquercetin] here?
**A.** Its value is “product in 64% of responses average”.

**Q.** What about the dominant flavour [1] of the same compound?
**A.** Its dominant flavour is “sure dominant flavour: saltiness”.

**Q.** And the “bitterness of KCl is reduced” value [1]?
**A.** The value was “product in 64% of responses average”.

**Q.** And the dominant flavour [2]?
**A.** The dominant flavour was “flavour: saltiness”.

**Q.** And the “bitterness of KCl is reduced” value [2]?
**A.** Its value is “product in 64% of responses average”.

**Q.** What about the dominant flavour [3] of the same compound?
**A.** The dominant flavour was “flavour: saltiness”.

**Q.** And the “bitterness of KCl is reduced” value [3]?
**A.** Its value is “product in 71% of responses average”.
